According to publication PMC6982876, “Synthesis of Novel Benzodifuranyl; 1,3,5-Triazines; 1,3,5-Oxadiazepines; and Thiazolopyrimidines Derived from Visnaginone and Khellinone as Anti-Inflammatory and Analgesic Agents” (Molecules, 2020):
pIC50: −log10 of the molar value. Marks after values point to notes of the source that are not given here.

Columns and labels:
[1] = system: acetic acid-induced writhing in mice; assay: Acetic acid-induced writhing test (analgesic activity); type: in vivo; settings: 10 mg/kg p.o., n = 5; for Writhing Number in 20 min (Mean ± SEM): acetic acid 1 h after dosing; for Analgesic Activity (% protection): writhing test
Method in brief: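 Mice of 25–30 g, fasted 8 h, given compound at 10 mg/kg p.o., five animals per group. One hour later, 1% acetic acid i.p. (0.1 mL/10 g); writhes counted over 20 min. Percent protection calculated against the saline control group.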

ovine COX-1 = molecular target: T1, ovine COX-1 (Ovis aries, UniProt P05979); assay: In vitro COX inhibitor screening assay (EIA kit, Cayman), COX-1; type: biochemical; settings: mean of two determinations, enzyme kit, read-out: COX1 IC50
T1 construct: purchased Cayman Chemical, Ann Arbor, MI, USA 560131
T1 sequence (P05979 25-600): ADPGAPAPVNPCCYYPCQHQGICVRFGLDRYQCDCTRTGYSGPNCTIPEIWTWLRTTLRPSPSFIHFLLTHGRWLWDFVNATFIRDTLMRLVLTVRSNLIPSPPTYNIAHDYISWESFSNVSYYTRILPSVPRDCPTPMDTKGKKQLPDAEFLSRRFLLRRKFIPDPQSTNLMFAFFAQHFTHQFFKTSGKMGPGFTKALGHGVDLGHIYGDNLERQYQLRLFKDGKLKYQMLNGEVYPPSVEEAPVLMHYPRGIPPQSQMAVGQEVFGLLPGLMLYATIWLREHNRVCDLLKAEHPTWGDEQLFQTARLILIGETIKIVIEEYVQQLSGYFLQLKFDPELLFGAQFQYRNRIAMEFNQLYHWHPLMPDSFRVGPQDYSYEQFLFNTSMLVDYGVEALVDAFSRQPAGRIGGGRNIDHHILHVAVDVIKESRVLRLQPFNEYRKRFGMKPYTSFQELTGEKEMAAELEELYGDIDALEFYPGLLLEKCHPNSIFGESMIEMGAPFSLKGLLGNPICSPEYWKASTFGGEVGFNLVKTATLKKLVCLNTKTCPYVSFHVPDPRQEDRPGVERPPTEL
Description: (§1) Furthermore, the selectivity index for COX-2 (COX-1 IC50 / COX-2 IC50) was calculated for the compounds.

human recombinant COX-2 = molecular target: T2, human recombinant COX-2 (Homo sapiens, UniProt P35354); assay: In vitro COX inhibitor screening assay (EIA kit, Cayman), COX-2; type: biochemical; settings: for COX2 (SI) selectivity index: COX-1 IC50 / COX-2 IC50; for pIC50: COX-2, mean of two determinations, enzyme kit, read-out: COX2 IC50
T2 construct: purchased Cayman Chemical, Ann Arbor, MI, USA 560131
T2 sequence (P35354 18-604): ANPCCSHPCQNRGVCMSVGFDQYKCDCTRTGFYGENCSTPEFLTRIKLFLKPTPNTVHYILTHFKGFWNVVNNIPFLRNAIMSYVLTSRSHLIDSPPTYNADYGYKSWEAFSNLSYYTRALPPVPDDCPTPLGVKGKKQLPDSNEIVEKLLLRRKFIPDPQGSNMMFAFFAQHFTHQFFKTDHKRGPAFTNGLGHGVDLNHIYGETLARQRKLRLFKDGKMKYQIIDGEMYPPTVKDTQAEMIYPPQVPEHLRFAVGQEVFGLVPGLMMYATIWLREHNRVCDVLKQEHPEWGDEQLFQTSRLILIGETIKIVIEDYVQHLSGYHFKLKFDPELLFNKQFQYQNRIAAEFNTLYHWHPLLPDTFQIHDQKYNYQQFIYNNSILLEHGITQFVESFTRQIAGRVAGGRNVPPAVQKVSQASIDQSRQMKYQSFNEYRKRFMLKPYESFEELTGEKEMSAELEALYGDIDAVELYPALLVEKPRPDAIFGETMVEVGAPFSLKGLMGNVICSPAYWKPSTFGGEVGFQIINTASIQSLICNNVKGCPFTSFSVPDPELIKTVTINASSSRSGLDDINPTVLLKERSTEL
Description: as §1

[2] = system: interleukin-1 beta (IL-1 β); assay: ELISA of serum interleukin-1 beta after paw edema test; type: in vivo, rats; settings: rat serum at the end of the paw edema test, mean ± SEM, n = 5
Description: IL1 is one of the important inflammatory mediators and is used to confirm the anti-inflammatory activities of new anti-inflammatory compounds. At the end of the paw edema test, blood samples were collected from the orbital axis of the eye under light ether anesthesia. Sera were separated after centrifugation of blood at 5000 rpm for 15 min; the sera were stored at –80 °C until the ELISA assay was performed according to the manufacturer instructions.

[3] = system: carrageenan-induced paw edema in rats; assay: Carrageenan-induced paw edema (anti-inflammatory activity); type: in vivo; settings: 10 mg/kg oral; for % Change in Paw Height (Mean ± SEM): n = 5
Method in brief: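 Albino rats weighing 150–180 g, in groups of five, received test compounds orally at 10 mg/kg; one hour later 0.1 mL of 1% carrageenan was injected into the left hind paw. Paw inflammation height was measured by digital caliber plethysmometer at 0, 1, 2 and 3 h, expressed as percentage increase relative to the uninjected right paw, with percentage edema inhibition versus control calculated at 3 h.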

| pIC50 (ovine COX-1) | melting point | COX2 (SI) selectivity index (human recombinant COX-2) | pIC50 (human recombinant COX-2) | SMILES | Writhing Number in 20 min (Mean ± SEM) [1] | Analgesic Activity (% protection) [1] | IL-1 β Concentration [2] | % Change in Paw Height (Mean ± SEM) ([3]; 1 hr after carrageenan) | % Change in Paw Height (Mean ± SEM) ([3]; 2 hr after carrageenan) | Anti-Inflammatory Activity (% Inhibition of Edema) ([3]; 3 hr after carrageenan) | % Change in Paw Height (Mean ± SEM) ([3]; 3 hr after carrageenan) |
| --- | --- | --- | --- | --- | --- | --- | --- | --- | --- | --- | --- |
| 5.24 | > 350 °C | 90 | 7.19 | COc1c2ccoc2cc2oc(C3=NC4=CC(=O)N5C(=O)C(=Cc6ccccc6)SC5N4C(=O)C(=Cc4ccccc4)O3)c(C)c12 (stereo not shown) [Compound 13a, 2,10-di(benzylidene)-8-(4-methoxy-3-methylbenzo[1,2-b:5,4-b`]difuran-2-yl)-5H,12aH-thiazolo[2’,3’:2,3]pyrimido[6,1-d][1,3,5]oxadiazepine-3,5,11(2H,10H)-trione] | 33 ± 1.9 ^a | 42 ± 1.90 ^a % | 39 ± 0.31 ^b Pg /mL | 0.27 ± 0.02 ^a % | 0.21 ± 0.01 ^a % | 59% | 0.24 ± 0.01 ^a % |
| 5.34 | > 350 °C | 96 | 7.32 | COc1c2ccoc2cc2oc(C(=Nc3cc(N4CCOCC4)nc(N4CCOCC4)n3)N3CCOCC3)c(C)c12 [Compound 10b, N-(2,6-dimorpholinopyrimidin-4-yl)-1-(4-methoxy-3-methylbenzo [1,2-b: 5,4-b`]difuran-2-yl)-1-morpholinomethanimine] | 27 ± 1.1 ^a | 48 ± 1.5 ^a % | 33 ± 0.38 ^b Pg /mL | 0.21 ± 0.02 ^a % | 0.16 ± 0.01 ^a % | 65% | 0.18 ± 0.01 ^a % |
| 5.26 | > 350 °C | 92 | 7.22 | COc1ccc(C=C2OC(c3oc4cc5occc5c(OC)c4c3C)=NC3=CC(=O)N4C(=O)C(=Cc5ccc(OC)cc5)SC4N3C2=O)cc1 (stereo not shown) [Compound 13c, 8-(4-methoxy-3-methylbenzo[1,2-b:5,4-b`]difuran-2-yl)-2,10-bis(4-methoxybenzylidene)-5H,12aH-thiazolo[2’,3’:2,3]pyrimido[6,1-d][1,3,5]oxadiazepine-3,5,11(2H,10H)-trione] | 31 ± 1.1 ^a | 44 ± 0.85 ^a % | 37 ± 0.57 ^b Pg /mL | 0.25 ± 0.01 ^a % | 0.19 ± 0.02 ^a % | 61% | 0.22 ± 0.02 ^a % |
| 5.35 | > 350 °C | 97 | 7.34 | COc1c2occc2c(OC)c2c(C)c(C(=Nc3cc(N4CCOCC4)nc(N4CCOCC4)n3)N3CCOCC3)oc12 [Compound 10d, 1-(4,8-dimethoxy-3-methylbenzo [1,2-b: 5,4-b`]difuran-2-yl)-N-(2,6-dimorpholino-pyrimidin-4-yl)-1-morpholinomethanimine] | 26 ± 1.2 ^a | 49 ± 1.1 ^a % | 32 ± 0.45 ^b Pg /mL | 0.20 ± 0.01 ^a % | 0.15 ± 0.02 ^a % | 66% | 0.17 ± 0.02 ^a % |
| 5.24 | > 350 °C | 91 | 7.20 | COc1c2occc2c(OC)c2c(C)c(C3=NC4=CC(=O)N5C(=O)C(=Cc6ccccc6)SC5N4C(=O)C(=Cc4ccccc4)O3)oc12 (stereo not shown) [Compound 13d, 2,10-di(benzylidene)-8-(4,8-dimethoxy-3-methylbenzo[1,2-b:5,4-b`]difuran-2-yl)-5H, 12aH -thiazolo[2’,3’:2,3]pyrimido[6,1-d][1,3,5]oxadiazepine-3,5,11(2H,10H)-trione] | 32 ± 1.4 ^a | 43 ± 1.90 ^a % | 38 ± 0.62 ^b Pg /mL | 0.26 ± 0.01 ^a % | 0.20 ± 0.02 ^a % | 60% | 0.23 ± 0.02 ^a % |
